The record followed here is ChEMBL document CHEMBL5653631, “A Potent and Selective ULK1 Inhibitor Suppresses Autophagy and Sensitizes Cancer Cells to Nutrient Stress” (iScience, 2018).

Assay [1] deals with T1, Testis-specific serine/threonine-protein kinase 4 (Homo sapiens) (UniProt Q6SA08).
T1 sequence (whole entry): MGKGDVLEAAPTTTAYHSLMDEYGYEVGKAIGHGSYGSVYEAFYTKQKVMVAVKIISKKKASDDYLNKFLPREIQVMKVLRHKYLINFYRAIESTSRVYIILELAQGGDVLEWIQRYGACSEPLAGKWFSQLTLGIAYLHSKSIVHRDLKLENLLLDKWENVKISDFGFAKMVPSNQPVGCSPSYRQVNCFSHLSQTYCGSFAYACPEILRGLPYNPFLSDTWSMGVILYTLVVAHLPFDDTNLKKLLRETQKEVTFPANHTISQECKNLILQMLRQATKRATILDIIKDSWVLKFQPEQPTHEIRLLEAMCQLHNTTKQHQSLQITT
Description: Inhibition of human recombinant TSSK4 at 40 nM in presence of ATP by radiometric assay relative to control.

Assay [2] deals with Calcium/calmodulin-dependent protein kinase type II subunit alpha (Homo sapiens) (UniProt Q9UQM7). The experiment in a line: Inhibition of human recombinant CaMK2a at 40 nM related to control ULK1.
Calcium/calmodulin-dependent protein kinase type II subunit alpha (Homo sapiens), sequence (Q9UQM7 whole entry): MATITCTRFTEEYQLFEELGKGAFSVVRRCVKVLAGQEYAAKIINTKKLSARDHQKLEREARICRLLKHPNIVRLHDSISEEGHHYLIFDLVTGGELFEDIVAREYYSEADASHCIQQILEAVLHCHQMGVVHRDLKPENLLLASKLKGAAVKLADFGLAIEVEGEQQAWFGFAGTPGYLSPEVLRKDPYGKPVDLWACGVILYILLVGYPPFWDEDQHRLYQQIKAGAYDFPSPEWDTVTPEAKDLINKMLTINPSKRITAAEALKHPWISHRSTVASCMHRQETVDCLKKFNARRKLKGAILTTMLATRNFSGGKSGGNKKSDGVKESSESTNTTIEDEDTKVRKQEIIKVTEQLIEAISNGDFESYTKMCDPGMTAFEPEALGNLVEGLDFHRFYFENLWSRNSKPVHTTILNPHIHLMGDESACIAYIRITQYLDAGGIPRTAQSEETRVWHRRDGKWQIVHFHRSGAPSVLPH
Assay [3] deals with T2, Ephrin type-A receptor 3 (Homo sapiens) (UniProt P29320).
T2 sequence (whole entry): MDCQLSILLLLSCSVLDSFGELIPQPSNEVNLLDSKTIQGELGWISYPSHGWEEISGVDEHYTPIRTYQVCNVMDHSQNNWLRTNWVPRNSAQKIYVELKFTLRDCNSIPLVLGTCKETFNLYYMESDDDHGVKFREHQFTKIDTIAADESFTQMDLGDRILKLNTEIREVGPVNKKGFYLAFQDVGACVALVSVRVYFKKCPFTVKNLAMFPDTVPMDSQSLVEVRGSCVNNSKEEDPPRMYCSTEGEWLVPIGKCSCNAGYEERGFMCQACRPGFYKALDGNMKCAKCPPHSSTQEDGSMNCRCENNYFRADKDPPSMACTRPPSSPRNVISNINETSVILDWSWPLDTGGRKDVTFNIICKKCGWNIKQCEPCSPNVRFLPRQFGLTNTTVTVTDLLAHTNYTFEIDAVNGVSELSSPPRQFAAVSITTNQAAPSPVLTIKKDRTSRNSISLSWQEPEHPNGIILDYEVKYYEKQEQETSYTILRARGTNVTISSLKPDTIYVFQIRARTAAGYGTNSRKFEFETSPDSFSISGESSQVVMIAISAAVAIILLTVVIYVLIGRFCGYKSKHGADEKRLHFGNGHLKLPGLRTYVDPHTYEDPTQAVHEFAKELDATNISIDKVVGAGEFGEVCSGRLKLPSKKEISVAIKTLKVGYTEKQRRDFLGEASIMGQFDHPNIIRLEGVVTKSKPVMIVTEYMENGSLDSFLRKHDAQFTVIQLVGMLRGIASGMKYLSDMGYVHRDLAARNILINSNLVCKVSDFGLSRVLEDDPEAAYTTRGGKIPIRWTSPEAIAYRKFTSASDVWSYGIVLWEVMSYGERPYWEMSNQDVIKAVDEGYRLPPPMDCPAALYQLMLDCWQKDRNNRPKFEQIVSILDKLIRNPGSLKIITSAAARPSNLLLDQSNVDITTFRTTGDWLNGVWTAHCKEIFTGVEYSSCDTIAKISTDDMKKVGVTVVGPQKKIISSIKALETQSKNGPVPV
The experiment in a line: Inhibition of human recombinant EphA3 at 500 nM in presence of ATP by radiometric assay relative to control.

The target of assay [4] is Transcription initiation factor TFIID subunit 1-like (Homo sapiens) (UniProt Q8IZX4). Description: Inhibition of human recombinant TAF1L at 500 nM in presence of ATP by radiometric assay relative to control.
Transcription initiation factor TFIID subunit 1-like (Homo sapiens), sequence (Q8IZX4 whole entry): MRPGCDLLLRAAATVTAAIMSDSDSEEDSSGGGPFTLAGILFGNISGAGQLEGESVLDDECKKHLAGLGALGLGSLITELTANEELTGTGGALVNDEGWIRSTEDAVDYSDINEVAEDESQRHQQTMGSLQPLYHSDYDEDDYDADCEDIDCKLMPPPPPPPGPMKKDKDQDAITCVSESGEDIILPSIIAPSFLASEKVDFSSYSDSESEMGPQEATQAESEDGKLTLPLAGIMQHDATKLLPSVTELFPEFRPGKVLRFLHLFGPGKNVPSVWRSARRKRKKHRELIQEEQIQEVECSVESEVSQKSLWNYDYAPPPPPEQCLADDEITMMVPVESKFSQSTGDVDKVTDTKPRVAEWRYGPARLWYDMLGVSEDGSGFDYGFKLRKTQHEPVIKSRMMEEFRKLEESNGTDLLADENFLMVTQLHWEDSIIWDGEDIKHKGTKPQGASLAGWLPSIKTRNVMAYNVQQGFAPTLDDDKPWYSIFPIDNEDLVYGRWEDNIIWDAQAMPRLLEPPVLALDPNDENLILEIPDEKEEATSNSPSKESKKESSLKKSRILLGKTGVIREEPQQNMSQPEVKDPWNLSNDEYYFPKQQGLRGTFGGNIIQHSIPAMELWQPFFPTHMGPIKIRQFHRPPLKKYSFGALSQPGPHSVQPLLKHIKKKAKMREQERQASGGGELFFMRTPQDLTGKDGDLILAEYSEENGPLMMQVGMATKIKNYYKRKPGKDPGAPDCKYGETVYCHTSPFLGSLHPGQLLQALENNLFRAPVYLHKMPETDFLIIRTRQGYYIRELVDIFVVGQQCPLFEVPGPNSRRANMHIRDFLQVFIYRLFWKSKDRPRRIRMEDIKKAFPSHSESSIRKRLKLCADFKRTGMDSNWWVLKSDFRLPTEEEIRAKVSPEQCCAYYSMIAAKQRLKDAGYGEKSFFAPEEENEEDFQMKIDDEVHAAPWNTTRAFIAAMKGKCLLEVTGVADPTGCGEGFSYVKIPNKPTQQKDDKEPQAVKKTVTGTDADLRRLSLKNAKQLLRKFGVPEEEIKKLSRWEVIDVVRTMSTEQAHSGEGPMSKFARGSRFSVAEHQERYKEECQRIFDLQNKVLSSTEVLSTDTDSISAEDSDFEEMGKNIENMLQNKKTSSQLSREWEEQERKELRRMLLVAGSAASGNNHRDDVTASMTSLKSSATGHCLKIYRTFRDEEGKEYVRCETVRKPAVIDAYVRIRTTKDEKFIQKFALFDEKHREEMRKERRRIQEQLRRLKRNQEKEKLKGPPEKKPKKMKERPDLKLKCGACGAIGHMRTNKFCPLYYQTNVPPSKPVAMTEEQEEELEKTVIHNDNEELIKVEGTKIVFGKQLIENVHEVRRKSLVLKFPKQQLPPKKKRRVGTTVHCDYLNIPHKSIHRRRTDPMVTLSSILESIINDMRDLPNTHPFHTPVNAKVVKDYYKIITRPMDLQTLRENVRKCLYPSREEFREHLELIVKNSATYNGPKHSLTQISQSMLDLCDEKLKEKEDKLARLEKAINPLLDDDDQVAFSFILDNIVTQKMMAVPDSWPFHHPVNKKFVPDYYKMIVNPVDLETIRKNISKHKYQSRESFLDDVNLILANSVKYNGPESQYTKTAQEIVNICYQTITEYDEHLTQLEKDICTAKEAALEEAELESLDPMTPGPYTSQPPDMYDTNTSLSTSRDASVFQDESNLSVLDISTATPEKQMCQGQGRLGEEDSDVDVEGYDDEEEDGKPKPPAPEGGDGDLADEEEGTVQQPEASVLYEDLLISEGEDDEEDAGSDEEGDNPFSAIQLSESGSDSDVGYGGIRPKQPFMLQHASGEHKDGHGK
Assay [5] deals with Serine/threonine-protein kinase SBK1 (Homo sapiens) (UniProt Q52WX2). Description: Inhibition of human recombinant SBK1 at 15 nM in presence of ATP by radiometric assay relative to control.
Serine/threonine-protein kinase SBK1 (Homo sapiens), sequence (Q52WX2 whole entry): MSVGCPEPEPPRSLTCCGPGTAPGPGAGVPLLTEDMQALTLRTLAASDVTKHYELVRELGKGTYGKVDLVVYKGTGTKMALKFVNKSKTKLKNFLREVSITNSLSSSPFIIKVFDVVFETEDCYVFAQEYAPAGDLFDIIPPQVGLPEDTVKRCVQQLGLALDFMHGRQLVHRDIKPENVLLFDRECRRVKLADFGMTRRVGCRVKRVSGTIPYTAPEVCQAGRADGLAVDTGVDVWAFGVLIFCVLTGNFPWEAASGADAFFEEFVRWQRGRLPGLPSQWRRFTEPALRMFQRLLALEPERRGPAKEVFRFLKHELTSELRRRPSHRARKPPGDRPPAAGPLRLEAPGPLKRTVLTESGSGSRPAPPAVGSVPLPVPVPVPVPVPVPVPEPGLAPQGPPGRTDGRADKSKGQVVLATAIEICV
The target in assay [6] is DNA-PK/Ku70/Ku85 (Homo sapiens) (UniProt P78527+P12956+P13010). Description: Inhibition of human recombinant DNAPK at 15 nM related to control ULK1. It counts as protein-complex assay.
Assay [7] has as its target Eukaryotic translation initiation factor 2-alpha kinase 1 (Homo sapiens) (UniProt Q9BQI3). Description: Inhibition of human recombinant HRI at 15 nM related to control ULK1.
Assay [8] deals with T3, Serine/threonine-protein kinase D3 (Homo sapiens) (UniProt O94806).
T3 sequence (whole entry): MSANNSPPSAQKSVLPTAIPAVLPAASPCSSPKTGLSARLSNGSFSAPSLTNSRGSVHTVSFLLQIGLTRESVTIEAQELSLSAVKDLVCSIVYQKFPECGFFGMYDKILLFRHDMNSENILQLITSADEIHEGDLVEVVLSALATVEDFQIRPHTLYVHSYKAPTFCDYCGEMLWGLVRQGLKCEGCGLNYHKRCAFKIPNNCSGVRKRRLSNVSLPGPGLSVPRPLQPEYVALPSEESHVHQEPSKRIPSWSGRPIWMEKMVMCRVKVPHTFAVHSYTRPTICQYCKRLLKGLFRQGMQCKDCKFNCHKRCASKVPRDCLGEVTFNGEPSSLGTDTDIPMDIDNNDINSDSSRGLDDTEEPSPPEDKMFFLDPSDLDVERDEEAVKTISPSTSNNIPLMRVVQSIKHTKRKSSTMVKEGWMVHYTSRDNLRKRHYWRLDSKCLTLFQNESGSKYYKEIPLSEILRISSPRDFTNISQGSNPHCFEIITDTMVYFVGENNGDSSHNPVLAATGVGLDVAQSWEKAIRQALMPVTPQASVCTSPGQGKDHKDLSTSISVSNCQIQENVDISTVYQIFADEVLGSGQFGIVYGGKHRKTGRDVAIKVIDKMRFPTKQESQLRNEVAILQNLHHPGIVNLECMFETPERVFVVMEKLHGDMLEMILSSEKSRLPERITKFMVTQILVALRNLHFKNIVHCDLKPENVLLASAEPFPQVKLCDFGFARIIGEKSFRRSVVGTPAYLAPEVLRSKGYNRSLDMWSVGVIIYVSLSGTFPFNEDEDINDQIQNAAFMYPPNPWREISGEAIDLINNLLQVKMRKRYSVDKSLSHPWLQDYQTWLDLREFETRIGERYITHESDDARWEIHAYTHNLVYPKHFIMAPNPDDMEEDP
Description: Inhibition of human recombinant PKD3 at 15 nM related to control ULK1.

Structures are written as SMILES.

Eukaryotic translation initiation factor 2-alpha kinase 1 (Homo sapiens), sequence (Q9BQI3 whole entry): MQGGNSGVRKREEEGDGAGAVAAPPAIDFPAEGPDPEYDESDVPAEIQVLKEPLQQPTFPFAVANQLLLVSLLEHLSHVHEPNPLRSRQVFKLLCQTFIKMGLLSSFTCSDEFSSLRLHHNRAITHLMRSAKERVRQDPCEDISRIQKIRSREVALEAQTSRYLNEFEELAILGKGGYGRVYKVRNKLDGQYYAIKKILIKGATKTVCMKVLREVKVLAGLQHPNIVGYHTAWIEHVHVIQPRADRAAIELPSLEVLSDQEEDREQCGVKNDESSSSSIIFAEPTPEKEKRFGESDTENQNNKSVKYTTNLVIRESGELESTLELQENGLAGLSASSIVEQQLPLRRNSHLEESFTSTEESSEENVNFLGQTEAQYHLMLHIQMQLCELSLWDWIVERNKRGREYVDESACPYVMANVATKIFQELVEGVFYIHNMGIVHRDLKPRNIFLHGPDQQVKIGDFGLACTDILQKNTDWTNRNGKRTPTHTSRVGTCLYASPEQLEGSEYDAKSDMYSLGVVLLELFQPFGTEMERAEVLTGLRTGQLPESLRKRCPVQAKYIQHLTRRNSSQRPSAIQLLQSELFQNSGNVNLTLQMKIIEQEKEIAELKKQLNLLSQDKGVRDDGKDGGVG

For `O=C(N[C@@H](C1CC1)C(F)(F)F)c1cc(-c2cnn3cc(-c4ccc(F)cc4)cnc23)cs1`, the inhibition in assay [1] was 0%. Moreover, in assay [2], the fold change (FC) is 0.

As for `CNC(=O)c1ccccc1Oc1nc(Nc2cc(OC)c(OC)c(OC)c2)ncc1Br`, the inhibition in assay [3] was 11%; in assay [4], 0%.

As to `CC(C)[C@H](NC(=O)c1cc(-c2cnn3cc(-c4ccc(OCCN5CCCCC5)cc4)cnc23)cs1)C(F)(F)F`, the inhibition in assay [5] came to 5%. Further, the fold change (FC) in assay [6] stood at 0; in assay [7] it was 0; in assay [8], 0.08.

For orientation: inhibition means the drop in the measured response relative to a control, in per cent.
